For one data set, the target named is 5-HT2B receptor (Homo sapiens (Human), UniProt P41595). Kind of data set: FLIPR Ca^2+ flux agonist assay at 5-HT2B. The following applies: HEK293. It is filed as cell-based. The procedure, abridged:
(§1)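 Agonist-induced calcium flux was measured on FLIPR Tetra in stable HEK293 cells for 5-HT2A and 5-HT2B, and in stable CHO cells for 5-HT1A. Cells were loaded with Fluo-4 Direct dye and 2.5 mM probenecid for 50 min at 37 °C before compound addition and fluorescence reading.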

For another data set, the target named is 5-HT1A receptor (Homo sapiens (Human), UniProt P08908). Kind of data set: FLIPR Ca^2+ flux agonist assay at 5-HT1A. The data set is classed as cell-based. The following applies: CHO cells.
Data set [1] is described as follows: Metabolic stability in rat liver microsomes (RLM). The following applies: both sexes, rat, pooled rat liver microsomes, pH 7.4, NADPH. It is filed as in vitro ADME.
In a further data set the target is D2 receptor (Homo sapiens (Human), UniProt P14416). Kind of data set: FLIPR Ca^2+ flux agonist assay at D2. It is filed as cell-based. The method, then:
(§2) Functional Assays at Adrenergic and Dopamine Receptors. Agonist activity at Alpha1A, Alpha2A, D1, and D2 receptors was determined using a FLIPR Ca^2+ flux assay at WuXi AppTec (Hong Kong) Limited according to their standard protocols. Briefly, stably transfected cells expressing the receptor of interest were grown and plated in a 384 well plate and incubated at 37° C. and 5% CO2 overnight. A solution of 250 mM probenecid in 1 mL FLIPR assay buffer was prepared fresh. This was combined with a fluorescent dye (Fluo-4 Direct™) to make a final assay concentration of 2.5 mM. […] The fluorescent dye was then added to the assay plate along with assay buffer to a final volume of 40 μL. The cell plate was incubated for 50 min at 37° C. and 5% CO2 and placed into the FLIPR Tetra along with the compound plate. 10 μL of references and compounds were then transferred from the compound plate into the cell plate and the fluorescent signal was read.

Another data set concerns the target 5-HT1B receptor (Homo sapiens (Human), UniProt P28222). Description: cAMP accumulation agonist assay at 5-HT1B. The data set is classed as cell-based. The procedure, abridged: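 Stably transfected cells expressing human 5-HT1B were incubated with compound for 60 min at RT to measure agonist-driven cAMP accumulation. Detection reagent was then added for another 60 min at RT, with 800 nM cAMP standard in blank wells, and plates were read on a multilabel reader.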

The nature of data set [2]: Metabolic stability in mouse liver microsomes (MLM). It is filed as in vitro ADME. The following applies: mouse, pooled mouse liver microsomes, pH 7.4, MLM (CD-1), NADPH. An excerpt:
MLM Stability Pooled MLM from CD-1 mice (BIOIVT M00501) were used.

The target of data set [3] is T1, 5-HT2A receptor (Homo sapiens (Human), UniProt P28223). It is filed as cell-based. The following applies: beta-arrestin recruitment. The procedure, abridged:
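PathHunter enzyme-fragment complementation in cells expressing ProLink-tagged 5-HT2A and β-arrestin–β-galactosidase fusion. Cells incubated at 37 °C before testing; recruitment read by chemiluminescence. Agonist activity expressed as % of maximal control ligand response after vehicle subtraction.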

Another data set has as its system C57BL/6 mice. Kind of data set: Mouse head twitch response (HTR) assay. It is filed as in vivo. The note with it: mouse HTR, SC.
The target in data set [4] is T1, 5-HT2A receptor. The data set is classed as cell-based. The procedure, abridged: as §1
The next data set concerns the target Alpha2A receptor (Homo sapiens (Human), UniProt P08913). Description: FLIPR Ca^2+ flux agonist assay at Alpha2A. It is filed as cell-based. As for the experimental part: as §2

Chain of 5-HT2B receptor (P41595 whole entry, looked up): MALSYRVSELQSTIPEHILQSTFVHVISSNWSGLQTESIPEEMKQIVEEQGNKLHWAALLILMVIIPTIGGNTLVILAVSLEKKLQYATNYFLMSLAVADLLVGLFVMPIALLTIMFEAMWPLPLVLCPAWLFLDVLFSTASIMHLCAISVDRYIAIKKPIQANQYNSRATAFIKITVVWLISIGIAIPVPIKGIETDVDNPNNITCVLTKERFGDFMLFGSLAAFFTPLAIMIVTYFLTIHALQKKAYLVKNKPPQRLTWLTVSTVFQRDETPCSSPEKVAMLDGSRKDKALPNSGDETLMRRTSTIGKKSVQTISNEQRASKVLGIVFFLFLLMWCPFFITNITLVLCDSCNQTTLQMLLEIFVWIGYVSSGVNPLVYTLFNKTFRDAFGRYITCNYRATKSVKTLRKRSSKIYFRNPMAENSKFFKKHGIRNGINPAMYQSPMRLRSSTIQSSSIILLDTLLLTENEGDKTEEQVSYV
Chain of D2 receptor (P14416 whole entry, looked up): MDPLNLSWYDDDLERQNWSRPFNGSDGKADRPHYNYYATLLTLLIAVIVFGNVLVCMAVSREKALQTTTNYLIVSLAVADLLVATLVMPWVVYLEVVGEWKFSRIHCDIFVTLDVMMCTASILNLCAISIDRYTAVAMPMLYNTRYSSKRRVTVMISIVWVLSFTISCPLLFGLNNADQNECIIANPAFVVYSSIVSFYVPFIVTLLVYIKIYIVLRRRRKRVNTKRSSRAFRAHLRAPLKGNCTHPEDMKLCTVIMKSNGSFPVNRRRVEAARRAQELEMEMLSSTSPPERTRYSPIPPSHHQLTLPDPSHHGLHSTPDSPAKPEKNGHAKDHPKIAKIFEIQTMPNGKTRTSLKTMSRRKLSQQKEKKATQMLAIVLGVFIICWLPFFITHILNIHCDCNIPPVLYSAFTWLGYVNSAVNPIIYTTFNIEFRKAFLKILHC
Chain of 5-HT1B receptor (P28222 whole entry, looked up): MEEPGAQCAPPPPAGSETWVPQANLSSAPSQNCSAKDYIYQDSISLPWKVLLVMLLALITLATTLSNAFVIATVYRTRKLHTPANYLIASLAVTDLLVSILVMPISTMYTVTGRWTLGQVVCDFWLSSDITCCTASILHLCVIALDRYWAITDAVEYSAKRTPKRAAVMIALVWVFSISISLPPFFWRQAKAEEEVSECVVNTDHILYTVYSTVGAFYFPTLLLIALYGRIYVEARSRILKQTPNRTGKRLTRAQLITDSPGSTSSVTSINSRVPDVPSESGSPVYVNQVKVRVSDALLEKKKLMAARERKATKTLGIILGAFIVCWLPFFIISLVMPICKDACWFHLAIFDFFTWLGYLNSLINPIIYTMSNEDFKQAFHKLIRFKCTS
Chain of Alpha2A receptor (P08913 whole entry, looked up): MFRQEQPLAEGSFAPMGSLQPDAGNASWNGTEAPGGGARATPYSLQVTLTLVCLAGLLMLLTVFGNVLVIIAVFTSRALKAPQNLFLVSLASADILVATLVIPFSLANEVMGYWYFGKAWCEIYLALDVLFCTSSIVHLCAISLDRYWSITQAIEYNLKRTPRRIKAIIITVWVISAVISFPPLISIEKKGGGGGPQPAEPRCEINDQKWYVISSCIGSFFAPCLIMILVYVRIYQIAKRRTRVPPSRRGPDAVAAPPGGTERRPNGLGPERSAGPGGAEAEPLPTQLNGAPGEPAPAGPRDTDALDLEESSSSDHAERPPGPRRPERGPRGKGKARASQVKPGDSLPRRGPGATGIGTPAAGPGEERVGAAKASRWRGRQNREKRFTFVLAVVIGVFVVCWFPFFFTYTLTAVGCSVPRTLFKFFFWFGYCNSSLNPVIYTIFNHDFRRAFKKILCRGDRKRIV

Turning to `CCCN1C[C@H](C(=O)N[C@H](C)CC)C=C2c3cccc4[nH]cc(c34)C[C@H]21` [Compound 3, (6aR,9R)-N-((R)-sec-butyl)-7-propyl-4,6,6a,7,8,9-hexahydroindolo[4,3-fg]quinoline-9-carboxamide], the “5-HT2B % Act @ Max Dose” value on 5-HT2B receptor came out at 94.11%. In addition, on 5-HT1A receptor, the “5-HT1A % Act @ Max Dose” value amounted to 107.6%. Besides, the half-life at 1 μM in [1] is 4.4 min. Besides, the “D2 % Act @ Max Dose” value on D2 receptor stood at 116.9%. Besides, the “5-HT1B % Act @ Max Dose” value on 5-HT1B receptor amounted to 98.66%. This compound also registered a half-life at 1 μM in [2] of 1.6 min. At 5-HT2A receptor [3], the “5-HT2A Arrestin % Act @ Max Dose” value was 109.57% and the “agonist type in the 5-HT2A arrestin recruitment assay, in words” value is “full agonists”. Moreover, the “Most Efficacious Dose” value in the data set with C57BL/6 mice is “(0.32 mg/kg)”. In the data set with C57BL/6 mice (20 min observation), the “# HTR at Most Efficacious Dose” value is 27.0. The “Emax (95% CI)” value in the data set on C57BL/6 mice (20 min observation, curve fit) turned out to be 25.56. Moreover, the “5-HT2A % Act @ Max Dose” value at 5-HT2A receptor [4] (Ca^2+ flux, HEK293) was 102.64%. Also, at 5-HT2A receptor [4] (vs Alpha1A, Alpha2A, D1, D2), the “selectivity for the 5-HT2A receptor over the tested adrenergic and dopamine receptors, in words” value is listed as “exceptional selectivity”. In addition, the “Alpha 2A % Act @ Max Dose” value at Alpha2A receptor is on record as 96.82%.

(Values after patent US20240368151A1, “NOVEL ERGOLINES AND METHODS OF TREATING MOOD DISORDERS” (priority 2021, published 2024).)
